Assay results: patent publication US9340551B2, “Inhibitors of bacterial type III secretion system” (MICROBIOTIX, INC., priority 2011, dated 2016)
Like-named read-outs stand apart in the source and are kept apart here.

How the values were obtained:
[1] = system: T3SS-mediated secretion of ExoS′-βLA fusion protein, P. aeruginosa strain MDM973; test: ExoS′-βLA effector-β-lactamase secretion assay (nitrocefin cleavage); conditions: for IC50: Pseudomonas aeruginosa; for inhibition of ExoS′-βLA secretion, in words: FIG. 4, concentration-dependence; for Secretion, % @50 μM: Table 4; for performance in T3SS-mediated secretion relative to MBX-1641, in words: α-propyl and α-isopropyl analogs; for IC50 in the ExoS′βLA assay versus reference inhibitor MBX-1641, in words: FIG. 2
[2] = system: T3SS-mediated translocation (ExoU intoxication of CHO cells); test: Inhibition of P. aeruginosa ExoU-dependent CHO cell killing (LDH release); conditions: Pseudomonas aeruginosa
Procedure: Rescue of CHO cells from T3SS-mediated cytotoxicity of translocated effector protein ExoU was measured using a lactate dehydrogenase (LDH) release assay as previously reported (Lee, et al., 2005, Infect. Immun., 73:1695-705) except that infection with P. aeruginosa was carried out for 2 hr in the absence of gentamicin. Percent cytotoxicity (% LDH release) was calculated relative to that of the uninfected control, which was set at 0% LDH release, and that of cells infected with P. aeruginosa unprotected by test compound (100% LDH release). LDH released from unprotected, infected cells reached at least 80% of the value obtained from complete lysis with 1% Triton X-100 in the 2 hr timeframe of this experiment.

[3] = Mammalian cytotoxicity (MTS conversion, serum-free medium); type: cell-based, human; conditions: human, HeLa cells
[4] = system: HeLa cells; test: as above; type: cell-based, human; conditions: Table 4; average of 1-20 determinations; read-out: Ave. CC50
[5] = read-out: Ave. Translocation IC50
[6] = Table 4, average of 1-20 determinations, read-out: Ave. CC50

Row | SMILES | melting point | IC50 ([1]; read-out: Ave. Secretion IC50) | IC50 [2, 5] | other results
1 | COc1ccc(CNC(=O)C(C)Oc2ccc(Cl)cc2Cl)cc1 (centres unmarked) [MBX-1940] | 77 °C |  |  | 
2 | CC(C)C(Oc1ccc(Cl)cc1Cl)C(=O)NCc1ccc(F)cc1 (centres unmarked) [MBX-2149] | 106 °C | 1580 µM |  | 
3 | CC(Oc1ccc(Cl)cc1Cl)C(=O)NCc1ccc(F)cc1 (centres unmarked) [MBX-1642] |  | 9.8 µM |  | 
4 | CCC(Oc1ccc(Cl)cc1Cl)C(=O)NCc1ccc(F)cc1 (centres unmarked) [MBX-2084] | 108 °C | 4.3 µM | 7.4 µM | CC50 at 3 days [3, 6]: 45 µM
5 | COc1ccc(CNC(=O)C(Oc2ccc(Cl)cc2Cl)C(C)C)cc1 (centres unmarked) [MBX-2148] | 77 °C | 210 µM |  | 
6 | CCC(Oc1ncc(Cl)cc1Cl)C(=O)NCc1ccc2sccc2c1 (racemic) [MBX-2359, N-(benzo[b]thiophen-5-ylmethyl)-2-(3,5-dichloropyridin-2-yloxy)butanamide] |  | 1.5 µM |  | inhibition of ExoS′-βLA secretion, in words [1]: potent inhibition of secretion
7 | CCCC(Oc1ccc(Cl)cc1Cl)C(=O)NCc1ccc2c(c1)OCO2 (centres unmarked) [MBX-2085] | 92 °C |  |  | Secretion, % @50 μM (printed in the Secretion IC50 column) ([1]; Table 3, @50 μM): 14% @50 μM; Secretion, % @50 μM ([1]; @50 μM): 14% @50 μM; performance in T3SS-mediated secretion relative to MBX-1641, in words [1]: significantly inferior performance
8 | CCCC(Oc1ccc(Cl)cc1Cl)C(=O)NCc1ccc(OC)c(OC)c1 (centres unmarked) [MBX-2086] | 82 °C |  |  | Secretion, % @50 μM ([1]; @50 μM): 18% @50 μM
9 | CCC(Oc1ncc(Cl)cc1Cl)C(=O)NCc1ccc2sccc2c1 (centres unmarked) [MBX-2401, N-(benzo[b]thiophen-5-ylmethyl)-2-(3,5-dichloropyridin-2-yloxy)butanamide] |  |  |  | inhibition of ExoS′-βLA secretion, in words [1]: potent inhibition of secretion
10 | COc1ccc(CNC(=O)C(Oc2ccc(Cl)cc2Cl)C(C)C)cc1OC (centres unmarked) [MBX-2147] | 109 °C | 94.9 µM | > 100 µM | 
11 | CCCC(Oc1ccc(Cl)cc1Cl)C(=O)NCc1ccc(F)cc1 (centres unmarked) [MBX-2088] |  |  |  | Secretion, % @50 μM ([1]; @50 μM): 9% @50 μM
12 | CCCC(Oc1ccc(Cl)cc1Cl)C(=O)NCc1ccc(OC)cc1 (centres unmarked) [MBX-2087] | 103 °C |  |  | Secretion, % @50 μM ([1]; @50 μM): 16% @50 μM
13 | CCC(Oc1ccc(Cl)cc1Cl)C(=O)N(C)Cc1ccc2c(c1)OCO2 (centres unmarked) [MBX-2159] |  | 19.1 µM | > 100 µM | 
14 | CC(Oc1ccc(Cl)cc1Cl)C(=O)NCc1ccc2c(c1)OCO2 (racemic) [MBX-1641, N-(benzo[d][1,3]dioxol-5-ylmethyl)-2-(2,4-dichlorophenoxy)propanamide, reference compound] |  | 7 µM |  | 
15 | CCC(Oc1ccc(Cl)cc1Cl)C(=O)NCc1ccc2c(c1)OCO2 (centres unmarked) [MBX-2081] | 112 °C | 3.9 µM | 4.2 µM | IC50 in the ExoS′βLA assay versus reference inhibitor MBX-1641, in words [1]: improvements; IC50 ([1]; read-out: Secretion IC50): 3.9 µM; SI, Selectivity Index (CC50/secretion IC50) ([1]; Table 3, HeLa CC50 / secretion IC50): >50; increase in potency as a T3SS inhibitor relative to MBX-1641 ([1]; α-ethyl analog versus MBX-1641): 3-4 fold; IC50 ([2]; read-out: Translocation IC50): 4.2 µM; CC50 [4]: > 200 µM; CC50 at 3 days ([3]; Table 3, serum-free media, read-out: CC50): > 200 µM
16 | CCC(Oc1ccc(Cl)cc1Cl)C(=O)NCc1ccc(OC)cc1 (centres unmarked) [MBX-2083] | 86 °C | 8.1 µM | 29.3 µM | 
17 | CCC(Oc1ccc(Cl)cc1Cl)C(=O)NCc1ccc(OC)c(OC)c1 (centres unmarked) [MBX-2082] | 117 °C | 16.3 µM | > 100 µM | 
18 | CCC(Oc1ncc(Cl)cc1Cl)C(=O)NCc1ccc(F)cc1 (centres unmarked) [MBX-2264] |  | 2 µM | 30 µM | IC50 in the ExoS′βLA assay versus reference inhibitor MBX-1641, in words [1]: improvements; CC50 at 3 days [3, 6]: 85 µM
19 | CC(C)C(Oc1ccc(Cl)cc1Cl)C(=O)NCc1ccc2c(c1)OCO2 (centres unmarked) [MBX-2146] | 74 °C | 100 µM |  | IC50 ([1]; read-out: Secretion IC50): 100 µM; performance in T3SS-mediated secretion relative to MBX-1641, in words [1]: significantly inferior performance
20 | COc1ccc(CNC(=O)C(C)Oc2ccc(Cl)cc2Cl)cc1OC (centres unmarked) [MBX-1942] | 127 °C |  |  | 
21 | CCC(Oc1ncc(Cl)cc1Cl)C(=O)NCc1ccc2sccc2c1 (centres unmarked) [MBX-2402, N-(benzo[b]thiophen-5-ylmethyl)-2-(3,5-dichloropyridin-2-yloxy)butanamide] |  |  |  | inhibition of ExoS′-βLA secretion, in words [1]: little inhibitory effect
22 | CCC(Oc1ncc(Cl)cc1Cl)C(=O)NCc1ccc2c(c1)OCO2 (racemic) [MBX-2263] |  | 2 µM | 17 µM | IC50 in the ExoS′βLA assay versus reference inhibitor MBX-1641, in words [1]: improvements; inhibition of ExoS′-βLA secretion, in words [1]: potent inhibition of secretion; CC50 at 3 days [3, 6]: > 100 µM
